# Read-outs that look alike come from different tables or passages of the source.
# Key:
# [1] = molecular target: T1, aminopeptidase N (L5006-25UN, Sigma) (Sus scrofa, UniProt P15145)
# T1 sequence (P15145 1-963): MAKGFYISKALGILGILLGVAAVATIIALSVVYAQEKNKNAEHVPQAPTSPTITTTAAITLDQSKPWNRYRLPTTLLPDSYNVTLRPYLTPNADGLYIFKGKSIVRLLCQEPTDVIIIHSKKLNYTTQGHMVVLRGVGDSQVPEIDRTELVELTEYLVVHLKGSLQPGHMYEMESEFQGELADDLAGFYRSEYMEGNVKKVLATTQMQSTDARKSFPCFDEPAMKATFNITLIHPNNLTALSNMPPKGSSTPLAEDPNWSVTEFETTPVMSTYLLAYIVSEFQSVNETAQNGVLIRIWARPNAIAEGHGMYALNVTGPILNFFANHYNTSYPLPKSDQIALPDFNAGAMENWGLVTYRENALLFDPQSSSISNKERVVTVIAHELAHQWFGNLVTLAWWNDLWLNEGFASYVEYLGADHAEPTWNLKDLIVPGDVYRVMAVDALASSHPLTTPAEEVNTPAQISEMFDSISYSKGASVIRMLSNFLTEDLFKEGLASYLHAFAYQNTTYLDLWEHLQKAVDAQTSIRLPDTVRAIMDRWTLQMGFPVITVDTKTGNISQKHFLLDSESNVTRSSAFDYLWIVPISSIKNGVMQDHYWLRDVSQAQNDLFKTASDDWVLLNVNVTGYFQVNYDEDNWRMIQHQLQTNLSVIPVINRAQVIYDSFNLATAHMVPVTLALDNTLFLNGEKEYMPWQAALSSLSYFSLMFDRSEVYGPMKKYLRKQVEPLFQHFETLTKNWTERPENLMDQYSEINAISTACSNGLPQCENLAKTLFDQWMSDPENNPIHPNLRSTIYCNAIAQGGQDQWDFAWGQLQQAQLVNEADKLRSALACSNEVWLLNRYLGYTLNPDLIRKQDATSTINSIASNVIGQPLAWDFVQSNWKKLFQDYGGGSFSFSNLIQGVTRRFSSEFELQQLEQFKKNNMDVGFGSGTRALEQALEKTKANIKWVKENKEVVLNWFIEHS
# Method: Biotechnol., 1995, 5(1):36-40” is followed to analyze the bioactivity of 3-amino-2-hydroxy-4-phenylbutanoyl-valyl-isoleucine, taking bestatin, a typical APN inhibitor used in leukemia treatment, as positive control.
# The procedure for the assay is as follows: apply 100 μl (1 mg/ml in a 0.1M Tris-HCl, pH 7.0) of substrate (L-leucine-p-nitroanilide) to a 96-well plate, mix with 20 µl (0.1M Tris-HCl, pH 7.0) of the compound to be assayed of different concentration (0.86, 1.71, 2.57, 4.29, 8.57 μg/ml). Incubate at 37° C. for 3 min, followed by addition of 20 μl (2 mU, 0.1M Tris-HCl, pH 7.0) aminopeptidase N (L5006-25UN, Sigma), incubate at 37° C. for 30 min. Read the absorbance at 405 nm.
# The inhibition rate is presented as:
# Inhibition rate=(A−B)/A*100%
# wherein: • A is the absorbance tested without inhibitor in the system. • B is the absorbance detected in the system containing different concentration of the compound. Use 0.1M Tris-HCl (pH 7.0) to normalize the buffer.
# [2] = Solubility of the purified product in solvents; format: physicochemical
# Method: The broth is harvested and placed at 4° C. overnight. Remove the precipitate by centrifugation at 4000 rpm, 4° C., for 30 min. The supernatant is subject to macroporous resin, which is selected from: XAD-1600, SP850, or JD-1, by either static or dynamic mode. The resin is then eluted with double volume of purified water, 10%, 30%, 50%, 75%, and 100% of ethanol. Collect the fraction of the 50% elute and concentrate it under reduced pressure at 40° C. Dilute the concentrate by 10 fold with 30% acetonitrile and centrifuge at 12000 rpm for 10 min. Load 15-25 ml of the supernatant to a column for preparative chromatography (Biotage Si 25+M 1603-2, USA) at room temperature. Elute the column with 30% acetonitrile at flow rate of 3-5 ml/min, and collect the fraction of 200-400 ml. The collected elute is then concentrate under reduced pressure at 40° C., and the concentrate is subject to preparative HPLC by DIONEXP680 system or Agilent 1100 DAD system. The fraction containing target compound is concentrated and dried under reduced pressure at 40° C., and a purified product is obtained. […]
# [3] = read-out: Inhibition Rate against APN (IR)
Compound,"inhibition at 0.86 µg/mL [1, 3]","inhibition at 1.71 µg/mL [1, 3]","inhibition at 2.57 µg/mL [1, 3]","inhibition at 4.29 µg/mL [1, 3]","inhibition at 8.57 µg/mL [1, 3]",Inhibition Rate against APN (IR) ([1]; concentration 0.86 μg/ml),Inhibition Rate against APN (IR) ([1]; concentration 1.71 μg/ml),Inhibition Rate against APN (IR) ([1]; concentration 2.57 μg/ml),Inhibition Rate against APN (IR) ([1]; concentration 4.29 μg/ml),Inhibition Rate against APN (IR) ([1]; concentration 8.57 μg/ml),solubility ([2]; in chloroform),"solubility ([2]; in methanol, ethanol, water and acetonitrile)"
"CC(C)C[C@H](NC(=O)[C@@H](O)[C@H](N)Cc1ccccc1)C(=O)O [positive control, bestatin, reference compound]",41.6%,44.4%,47.1%,52.6%,66.5%,,,,,,,
CC[C@H](C)[C@H](NC(=O)[C@@H](NC(=O)C(O)C(N)Cc1ccccc1)C(C)C)C(=O)O (stereo partly drawn) [the compound],,,,,,42.02%,51.40%,65.14%,70.79%,77.91%,insoluble,soluble

# From patent publication US20140018303A1
